The values below come from BindingDB's records for patent US20250066350 (Innovstone Therapeutics, 2025).

Chain of Serine/threonine-protein kinase ATR (Q13535 whole entry): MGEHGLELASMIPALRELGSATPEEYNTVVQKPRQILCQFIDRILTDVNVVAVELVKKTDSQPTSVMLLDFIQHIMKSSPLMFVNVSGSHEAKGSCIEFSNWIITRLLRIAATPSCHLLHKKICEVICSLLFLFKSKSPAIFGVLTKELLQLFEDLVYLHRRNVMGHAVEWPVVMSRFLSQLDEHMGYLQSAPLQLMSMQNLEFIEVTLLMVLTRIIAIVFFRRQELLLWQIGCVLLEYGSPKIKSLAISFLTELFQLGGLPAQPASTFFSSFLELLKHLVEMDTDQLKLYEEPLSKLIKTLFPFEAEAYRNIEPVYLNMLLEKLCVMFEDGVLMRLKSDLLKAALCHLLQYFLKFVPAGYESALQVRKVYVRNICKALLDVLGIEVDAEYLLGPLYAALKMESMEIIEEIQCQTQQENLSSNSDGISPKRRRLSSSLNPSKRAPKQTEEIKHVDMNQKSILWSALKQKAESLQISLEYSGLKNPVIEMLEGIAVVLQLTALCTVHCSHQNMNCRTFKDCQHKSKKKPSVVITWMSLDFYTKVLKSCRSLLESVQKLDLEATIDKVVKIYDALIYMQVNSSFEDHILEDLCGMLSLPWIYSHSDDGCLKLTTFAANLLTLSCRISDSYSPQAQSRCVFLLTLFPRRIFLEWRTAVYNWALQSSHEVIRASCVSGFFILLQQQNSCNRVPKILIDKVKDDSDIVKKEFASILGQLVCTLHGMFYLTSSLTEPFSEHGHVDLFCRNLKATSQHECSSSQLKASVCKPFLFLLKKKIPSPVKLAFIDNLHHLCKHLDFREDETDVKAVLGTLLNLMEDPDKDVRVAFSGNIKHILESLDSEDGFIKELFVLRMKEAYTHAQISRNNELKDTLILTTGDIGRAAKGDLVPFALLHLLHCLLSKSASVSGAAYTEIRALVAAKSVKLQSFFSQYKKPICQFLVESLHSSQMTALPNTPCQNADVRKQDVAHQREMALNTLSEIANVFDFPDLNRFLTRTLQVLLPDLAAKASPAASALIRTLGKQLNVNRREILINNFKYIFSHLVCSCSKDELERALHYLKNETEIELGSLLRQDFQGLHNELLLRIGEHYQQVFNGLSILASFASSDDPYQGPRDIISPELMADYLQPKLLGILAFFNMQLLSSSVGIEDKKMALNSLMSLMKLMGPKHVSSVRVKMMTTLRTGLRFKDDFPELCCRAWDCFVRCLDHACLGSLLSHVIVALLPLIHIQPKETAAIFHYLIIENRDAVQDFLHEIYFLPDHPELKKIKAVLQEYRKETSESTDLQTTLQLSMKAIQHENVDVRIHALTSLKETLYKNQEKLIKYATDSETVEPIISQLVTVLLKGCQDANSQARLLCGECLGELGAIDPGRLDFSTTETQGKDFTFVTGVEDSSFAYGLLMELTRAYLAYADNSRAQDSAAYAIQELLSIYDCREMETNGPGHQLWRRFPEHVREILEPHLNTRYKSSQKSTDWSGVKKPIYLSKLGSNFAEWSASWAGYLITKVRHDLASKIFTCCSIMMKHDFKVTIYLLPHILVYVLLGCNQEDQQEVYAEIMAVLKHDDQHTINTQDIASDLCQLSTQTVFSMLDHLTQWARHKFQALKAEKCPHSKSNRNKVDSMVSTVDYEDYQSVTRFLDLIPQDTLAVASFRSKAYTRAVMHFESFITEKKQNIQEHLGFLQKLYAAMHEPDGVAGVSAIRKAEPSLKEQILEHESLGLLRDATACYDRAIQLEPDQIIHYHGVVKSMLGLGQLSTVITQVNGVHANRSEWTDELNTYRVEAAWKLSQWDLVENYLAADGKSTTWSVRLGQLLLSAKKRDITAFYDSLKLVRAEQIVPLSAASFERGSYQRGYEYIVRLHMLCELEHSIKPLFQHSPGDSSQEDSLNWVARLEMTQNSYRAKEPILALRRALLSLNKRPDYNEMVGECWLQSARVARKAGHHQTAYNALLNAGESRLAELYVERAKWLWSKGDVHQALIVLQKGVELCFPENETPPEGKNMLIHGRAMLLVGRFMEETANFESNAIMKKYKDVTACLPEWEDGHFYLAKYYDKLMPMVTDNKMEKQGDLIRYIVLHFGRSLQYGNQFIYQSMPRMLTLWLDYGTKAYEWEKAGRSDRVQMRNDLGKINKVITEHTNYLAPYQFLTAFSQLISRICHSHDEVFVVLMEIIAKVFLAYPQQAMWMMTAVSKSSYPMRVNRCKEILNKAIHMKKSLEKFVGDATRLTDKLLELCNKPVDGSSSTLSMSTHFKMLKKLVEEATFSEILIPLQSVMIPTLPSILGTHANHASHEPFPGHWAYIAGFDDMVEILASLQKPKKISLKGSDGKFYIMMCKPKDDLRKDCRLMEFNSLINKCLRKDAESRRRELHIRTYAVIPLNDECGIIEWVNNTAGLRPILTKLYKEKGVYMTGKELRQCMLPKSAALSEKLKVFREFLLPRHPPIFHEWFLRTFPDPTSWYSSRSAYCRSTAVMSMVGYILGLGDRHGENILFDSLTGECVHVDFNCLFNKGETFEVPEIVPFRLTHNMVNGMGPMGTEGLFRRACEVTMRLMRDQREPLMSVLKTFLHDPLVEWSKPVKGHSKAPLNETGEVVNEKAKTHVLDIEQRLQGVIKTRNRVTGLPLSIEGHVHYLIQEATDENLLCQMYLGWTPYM

In this experiment the target is Serine/threonine-protein kinase ATR (Homo sapiens, UniProt Q13535). As to the kind of experiment: ATR Enzyme Assay. From the text:
I. Experimental Materials and Instruments1. ATR enzyme (Eurofins Pharma Discovery Services, 14-953M)2. GST-tagged P53 protein (Eurofins Pharma Discovery Services, 14-952M)3. 384-well plate (Geriner bio-one, 784075)4. U-bottom 96-well plate (Geriner bio-one, 651201)5. Anti-phospho-P53 protein antibody labeled with europium cryptate (cisbio, 61P08KAZ)6. Anti-GST antibody linked to d2 (cisbio, 61GSTDLB)7. ATP solution (Sigma, R0441)8. DTT (Sigma, D0632-259)9. HEPES (Sigma, 15630080)10. Microplate reader (Envision 2104 Multilabel Reader)II. Experimental Steps15 nM ATR enzyme, 80 nM P53 protein, 300 nM ATP (the final concentrations were 40 nM and 150 nM, respectively), and small molecule compounds of various concentrations (the final concentrations (nM) of the ten points were 2985.0, 895.5, 298.5, 110.56, 33.17, 11.06, 4.09, 1.23, 0.41 and 0.15, respectively, and the final dimethyl sulfoxide concentration was 0.498%) were mixed and incubated at room temperature for 90 minutes. 10 μL of 2× cocktail buffer was added to the mixture of ATR, compound and substrate in the assay plate (anti-phospho-p53-Eu and anti-GST-d2 were diluted in the assay buffer). The resulting mixture was centrifuged at 1000 rpm for 30 seconds, and incubated overnight at 4° C. in the dark (a total of 20 μl in each well). The FRET signal (endpoint) was measured in the Envision instrument (HTRF 665/612 ratio was calculated at 665 nm emission and 612 nm emission). Data were processed using GraphPad software.
The term IC50 denotes the concentration needed to halve the response being measured. Higher therefore signals a need for much substance. Take `Cc1[nH]nc(C(F)(F)F)c1-c1cc(N2CCOC[C@H]2C)nc2c1cnn2-c1cc[nH]n1` [US20250066350, Example 1]: the IC50 was < 10 nM.

Regarding `C[C@@H]1COCCN1c1cc(C2(O)CCC3(CC2)CO3)c2cnn(-c3cc[nH]n3)c2n1` (stereo partly specified) [US20250066350, Example 2], the IC50 is < 10 nM.

Consider `Cc1nn(C2CCNCC2)c(C(F)(F)F)c1-c1cc(N2CCOC[C@H]2C)nc2c1cnn2-c1cc[nH]n1` [US20250066350, Example 3], for which the 50% inhibitory concentration (IC50) is < 10 nM.

Take `Cc1c(-c2cc(N3CCOC[C@H]3C)nc3c2cnn3-c2cc[nH]n2)c(C(F)(F)F)nn1C1CCNCC1` [US20250066350, Example 4]: the 50% inhibitory concentration (IC50) was < 10 nM.

With `COCC#Cc1cc(N2CCOC[C@H]2C)nc2c1cnn2-c1cc[nH]n1` [US20250066350, Example 5], the IC50 was < 10 nM.

In the case of `C[C@@H]1COCCN1c1cc(C#CC2(O)CCCCC2)c2cnn(-c3cc[nH]n3)c2n1` [US20250066350, Example 6], the IC50 was < 10 nM.

With `C[C@@H]1COCCN1c1cc(-c2ccc(N3CCCCC3=O)cc2)c2cnn(-c3cc[nH]n3)c2n1` [US20250066350, Example 7], the half-inhibitory concentration (IC50) is < 10 nM.

On to `C[C@@H]1COCCN1c1cc(C2=CCCOC2)c2cnn(-c3cc[nH]n3)c2n1` [US20250066350, Example 8], for which the IC50 was < 10 nM.

For `Cc1ccc(-c2cc(N3CCOC[C@H]3C)nc3c2cnn3-c2cc[nH]n2)cn1` [US20250066350, Example 9], the half-maximal inhibitory concentration (IC50) is < 10 nM.

On to `C[C@@H]1COCCN1c1cc(C#CC2(O)CCC3(CC2)CC3)c2cnn(-c3ccn[nH]3)c2n1` [US20250066350, Example 10], for which the IC50 was < 10 nM.

For the compound `C[C@@H]1COCCN1c1cc(-c2ccnc3[nH]ccc23)c2cnn(-c3cc[nH]n3)c2n1` [US20250066350, Example 11], the IC50 was < 10 nM.

Consider `C[C@@H]1COCCN1c1cc(C2CCCOC2)c2cnn(-c3cc[nH]n3)c2n1` (stereo partly specified) [US20250066350, Example 13], for which the half-maximal inhibitory concentration (IC50) is < 10 nM.

In the case of `C[C@@H]1COCCN1c1cc(-c2ccc(N3CC4(COC4)C3)cc2)c2cnn(-c3cc[nH]n3)c2n1` [US20250066350, Example 15], the half-inhibitory concentration (IC50) is < 10 nM.

As for `C[C@@H]1COCCN1c1cc(C#CC(C)(C)O)c2cnn(-c3cc[nH]n3)c2n1` [US20250066350, Example 16], the IC50 is < 10 nM.

As to `C[C@@H]1COCCN1c1cc(-c2ccc(N3CC4CCC(O4)C3=O)cc2)c2cnn(-c3cc[nH]n3)c2n1` (stereo partly specified) [US20250066350, Example 65], the IC50 is < 10 nM.

For `C[C@@H]1COCCN1c1cc(-c2ccc(NC(=O)c3cccc(S(C)(=O)=O)c3)cc2)c2cnn(-c3cc[nH]n3)c2n1` [US20250066350, Example 145], the IC50 was < 10 nM.

Regarding `CCC(CC)C(=O)Nc1ccc(-c2cc(N3CCOC[C@H]3C)nc3c2cnn3-c2cc[nH]n2)cc1` [US20250066350, Example 151], the IC50 is < 10 nM.

`C[C@@H]1COCCN1c1cc(-c2ccc(N3CCCCCC3=O)cc2)c2cnn(-c3cc[nH]n3)c2n1` [US20250066350, Example 153]: the IC50 was < 10 nM.

For the compound `C[C@@H]1COCCN1c1cc(-c2ccc(NC(=O)C3CCOCC3)cc2)c2cnn(-c3cc[nH]n3)c2n1` [US20250066350, Example 155], the IC50 is < 10 nM.

Regarding `C[C@@H]1COCCN1c1cc(-c2ccc(NC(=O)C3CCNC3)cc2)c2cnn(-c3cc[nH]n3)c2n1` (stereo partly specified) [US20250066350, Example 157], the IC50 was < 10 nM.

Take `C[C@@H]1COCCN1c1cc(-c2ccc(NC(=O)C3CCCNC3)cc2)c2cnn(-c3cc[nH]n3)c2n1` (stereo partly specified) [US20250066350, Example 159]: the concentration for half-maximal inhibition (IC50) is < 10 nM.

As to `CC(=O)N1CCC(C(=O)Nc2ccc(-c3cc(N4CCOC[C@H]4C)nc4c3cnn4-c3cc[nH]n3)cc2)C1` (stereo partly specified) [US20250066350, Example 161], the IC50 was < 10 nM.

Regarding `C[C@@H]1COCCN1c1cc(-c2ccc(NC(=O)c3ccccc3)cc2)c2cnn(-c3cc[nH]n3)c2n1` [US20250066350, Example 163], the 50% inhibitory concentration (IC50) was < 10 nM.

For the compound `C[C@@H]1COCCN1c1cc(-c2ccc(NC(=O)c3ccncn3)cc2)c2cnn(-c3cc[nH]n3)c2n1` [US20250066350, Example 165], the IC50 was < 10 nM.

Take `C[C@@H]1COCCN1c1cc(-c2ccc(N3CCCCC3=O)nc2)c2cnn(-c3cc[nH]n3)c2n1` [US20250066350, Example 167]: the concentration for half-maximal inhibition (IC50) is < 10 nM.

For `C[C@@H]1COCCN1c1cc(-c2ccc(N3CCCCC3=O)c(C#N)c2)c2cnn(-c3cc[nH]n3)c2n1` [US20250066350, Example 169], the half-inhibitory concentration (IC50) is < 10 nM.

In the case of `C[C@@H]1COCCN1c1cc(-c2ccc(N3CCCCC3=O)c(F)c2)c2cnn(-c3cc[nH]n3)c2n1` [US20250066350, Example 171], the IC50 was < 10 nM.

Turning to `C[C@@H]1COCCN1c1cc(-c2ccc3c(c2)CCN3C(=O)c2ccncc2)c2cnn(-c3cc[nH]n3)c2n1` [US20250066350, Example 183], the IC50 was < 10 nM.

Regarding `C[C@@H]1COCCN1c1cc(-c2ccc(NC(=O)NC34CC5CC(CC(C5)C3)C4)cc2)c2cnn(-c3cc[nH]n3)c2n1` [US20250066350, Example 187], the IC50 was < 10 nM.

With `C[C@@H]1COCCN1c1cc(-c2ccc(NC(=O)c3cccnc3)cc2F)c2cnn(-c3cc[nH]n3)c2n1` [US20250066350, Example 195], the half-maximal inhibitory concentration (IC50) is < 10 nM.

`C[C@@H]1COCCN1c1cc(-c2ccc(N3CCCCCC3=O)cc2F)c2cnn(-c3cc[nH]n3)c2n1` [US20250066350, Example 197]: the half-inhibitory concentration (IC50) is < 10 nM.

For the compound `C[C@@H]1COCCN1c1cc(-c2ccc(N3CC4CCC(O4)C3=O)cc2F)c2cnn(-c3cc[nH]n3)c2n1` (stereo partly specified) [US20250066350, Example 199], the half-inhibitory concentration (IC50) was < 10 nM.

As for `C[C@@H]1COCCN1c1cc(-c2ccc(NC(=O)N3CCCC3)cc2)c2cnn(-c3cc[nH]n3)c2n1` [US20250066350, Example 207], the half-inhibitory concentration (IC50) is < 10 nM.

With `C[C@@H]1COCCN1c1cc(C#CC2CCCNC2)c2cnn(-c3ccn[nH]3)c2n1` (stereo partly specified) [US20250066350, Example 209], the IC50 was < 10 nM.

`C[C@@H]1COCCN1c1cc(-c2ccc(NC(=O)C3CCN(C)C3)cc2)c2cnn(-c3cc[nH]n3)c2n1` (stereo partly specified) [US20250066350, Example 213]: the IC50 is < 10 nM.

As for `CNC(=O)N(C)c1ccc(-c2cc(N3CCOC[C@H]3C)nc3c2cnn3-c2cc[nH]n2)cc1` [US20250066350, Example 215], the IC50 is < 10 nM.

With `C[C@@H]1COCCN1c1cc(-c2ccc(NC(=O)C(F)F)cc2)c2cnn(-c3cc[nH]n3)c2n1` [US20250066350, Example 217], the IC50 was < 10 nM.

Regarding `C[C@@H]1COCCN1c1cc(-c2ccc(N3CCCCC3=O)cc2C(F)(F)F)c2cnn(-c3cc[nH]n3)c2n1` [US20250066350, Example 242], the IC50 was < 10 nM.

Regarding `CC1CCCN1C(=O)Nc1ccc(-c2cc(N3CCOC[C@H]3C)nc3c2cnn3-c2cc[nH]n2)c(F)c1` (stereo partly specified) [US20250066350, Example 252], the IC50 is < 10 nM.

On to `C[C@@H]1COCCN1c1cc(-c2ccc(-c3ccnn3C)cc2F)c2cnn(-c3cc[nH]n3)c2n1` [US20250066350, Example 258], for which the 50% inhibitory concentration (IC50) was < 10 nM.

Turning to `C[C@@H]1COCCN1c1cc(-c2cc(C#N)c(N3CCCCC3=O)cc2F)c2cnn(-c3cc[nH]n3)c2n1` [US20250066350, Example 259], the concentration for half-maximal inhibition (IC50) is < 10 nM.
